# Where two headings read alike, the source gives them in different places.
# Legend:
# Clone 1.1 = test: ELISA antibody cross-reactivity, Clone 1.1; type: binding, mouse
# Protocol: (§1) Cross-reactivity of three clones for LSD, nor-LSD and 2-oxo-3-hydroxy-LSD was determined using an ELISA technique. Microtiter plates were coated with 100 μl of 0.325 mg/ml LSD-BSA or 100 μl of 0.325 mg/ml 2-oxo-3-hydroxy-LSD-BSA for 1 hour at 37° C. and post-blocked with 200 μl of 1% BSA in PBS for 1 hour at room temperature. Plates were washed 3 times with 400 μl of PBS-0.1% TWEEN-20. Free LSD, nor-LSD and 2-oxo-3-hydroxy-LSD were diluted to 1000 ng/ml in PBS. Antibody was diluted 8,000 fold. Drug solutions, 200 μl of 1000 ng/ml, solutions were dispensed into the first column of an ELISA plate. The rest of the wells were filled with 100 μl of PBS. Serial dilutions of the drugs were prepared by taking 100 μl of the drug solution out of the first column and dispensing it into the second column of the plate. Contents of the wells were mixed thoroughly by pipetting the solution up and down 5 times. 100 μl out of the second column was dispensed into the third column and mixed as above. The process was repeated for all 12 columns of ELISA plates. 100 μl of solution out of the last wells was discarded. 100 μl of antibody diluted 8,000 fold was added to each well. Resulting concentrations of the drug were 500 ng/ml, 250 ng/ml, 125 ng/ml, 62.5 ng/ml, 31.2 ng/ml, 15.6 ng/ml, 7.81 ng/ml, 3.90 ng/ml, 1.95 ng/ml, 0.976 ng/ml, 0.488 ng/ml, 0.244 ng/ml. Final antibody dilution was 16,000 fold. Plates were incubated for 1 hour at 37° C. and washed 3 times with PBS-TWEEN-20. Rabbit anti-mouse HRP conjugated IgG was diluted 5,000 fold and 100 μl were added to ELISA plates. The plates were incubated for 1 hour at 37° C. and washed 3 times with PBS-TWEEN-20. 100 μl of K-BLUE substrate was dispensed into each well. Plates were incubated for 30 min at room temperature in the dark. The reaction was stopped with 100 μl of 2 M H3PO4, and absorbance was read at 450 nm.
# Clone 2.1 = test: ELISA antibody cross-reactivity, Clone 2.1; type: binding, mouse
# Protocol: as §1
# Clone 20.2 = test: ELISA antibody cross-reactivity, Clone 20.2; type: binding, mouse
# Protocol: as §1
# [1] = system: antibodies specific for LSD; details: EMIT (Syva Company) immunoassay; cited from earlier work
# [2] = system: antibodies specific for LSD; details: CEDIA (Microgenics Corporation) immunoassay; cited from earlier work
# [3] = system: antibodies specific for LSD; details: KIMS (Roche Diagnostics) immunoassay; cited from earlier work
# [4] = cited from earlier work
# [5] = Dilution 0.2 (free drug 0.244 ng/ml)
# [6] = Dilution 0.5 (free drug 0.488 ng/ml)
# [7] = Dilution 1.0 (free drug 0.976 ng/ml)
# [8] = Dilution 2.0 (free drug 1.95 ng/ml)
# [9] = Dilution 3.9 (free drug 3.90 ng/ml)
# [10] = Dilution 7.8 (free drug 7.81 ng/ml)
# [11] = Dilution 15.6 (free drug 15.6 ng/ml)
# [12] = Dilution 31.3 (free drug 31.2 ng/ml)
# [13] = Dilution 62.5 (free drug 62.5 ng/ml)
# [14] = Dilution 125.0 (free drug 125 ng/ml)
# [15] = Dilution 250.0 (free drug 250 ng/ml)
# [16] = Dilution 500.0 (free drug 500 ng/ml)
# [17] = based upon specificity to 2-oxo-3-hydroxy-LSD
structure (smiles),measurement,setting,value
"CCN(CC)C(=O)[C@@H]1C=C2c3cccc4c3C(O)(C[C@H]2N(C)C1)C(=O)N4 (stereo partly drawn) [2-oxo-3-hydroxy-LSD, 2-oxo-3-hydroxy-d-lysergic acid diethylamide]",A450,Clone 1.1; [5],3.913
same,A450,Clone 1.1; [6],3.928
same,A450,Clone 1.1; [7],4.033
same,A450,Clone 1.1; [8],4.015
same,A450,Clone 1.1; [9],3.908
same,A450,Clone 1.1; [10],3.914
same,A450,Clone 1.1; [11],3.310
same,A450,Clone 1.1; [12],3.108
same,A450,Clone 1.1; [13],2.278
same,A450,Clone 1.1; [14],1.768
same,A450,Clone 1.1; [15],1.425
same,A450,Clone 1.1; [16],0.871
same,Calculated percentage cross-reactivity,Clone 1.1; [17],100.0%
same,Calculated percentage cross-reactivity,Clone 1.1; based upon specificity to LSD,133.6%
same,A450,Clone 2.1; [5],0.846
same,A450,Clone 2.1; [6],0.690
same,A450,Clone 2.1; [7],0.552
same,A450,Clone 2.1; [8],0.531
same,A450,Clone 2.1; [9],0.372
same,A450,Clone 2.1; [10],0.321
same,A450,Clone 2.1; [11],0.294
same,A450,Clone 2.1; [12],0.309
same,A450,Clone 2.1; [13],0.243
same,A450,Clone 2.1; [14],0.256
same,A450,Clone 2.1; [15],0.297
same,A450,Clone 2.1; [16],0.243
same,Calculated percentage cross-reactivity,Clone 2.1; [17],100.0%
same,Calculated percentage cross-reactivity,Clone 2.1; based upon specificity to LSD,131.4%
same,A450,Clone 20.2; [5],0.838
same,A450,Clone 20.2; [6],0.704
same,A450,Clone 20.2; [7],0.430
same,A450,Clone 20.2; [8],0.372
same,A450,Clone 20.2; [9],0.316
same,A450,Clone 20.2; [10],0.272
same,A450,Clone 20.2; [11],0.220
same,A450,Clone 20.2; [12],0.148
same,A450,Clone 20.2; [13],0.142
same,A450,Clone 20.2; [14],0.143
same,A450,Clone 20.2; [15],0.144
same,A450,Clone 20.2; [16],0.142
same,Calculated percentage cross-reactivity,Clone 20.2; [17],100.0%
same,Calculated percentage cross-reactivity,Clone 20.2; based upon specificity to LSD,118.5%
same,cross-reactivity,[1],1.7%
same,cross-reactivity,[2],1.8%
same,cross-reactivity,[3],11%
same,time detectable after ingestion of the drug,"[4]; urine, compared with LSD",can be detected for a longer time than LSD
"CCN(CC)C(=O)[C@@H]1C=C2c3cccc4[nH]cc(c34)C[C@H]2N(C)C1 [LSD, 9,10-didehydro-N,N-diethyl-6-methylergoline-8β-carboxamide]",A450,Clone 1.1; [5],3.797
same,A450,Clone 1.1; [6],4.085
same,A450,Clone 1.1; [7],3.962
same,A450,Clone 1.1; [8],3.905
same,A450,Clone 1.1; [9],3.951
same,A450,Clone 1.1; [10],3.831
same,A450,Clone 1.1; [11],3.519
same,A450,Clone 1.1; [12],3.390
same,A450,Clone 1.1; [13],2.633
same,A450,Clone 1.1; [14],2.050
same,A450,Clone 1.1; [15],1.433
same,A450,Clone 1.1; [16],0.831
same,Calculated percentage cross-reactivity,Clone 1.1; [17],74.9%
same,Calculated percentage cross-reactivity,Clone 1.1; based upon specificity to LSD,100.0%
same,A450,Clone 2.1; [5],0.831
same,A450,Clone 2.1; [6],0.738
same,A450,Clone 2.1; [7],0.579
same,A450,Clone 2.1; [8],0.523
same,A450,Clone 2.1; [9],0.435
same,A450,Clone 2.1; [10],0.339
same,A450,Clone 2.1; [11],0.303
same,A450,Clone 2.1; [12],0.294
same,A450,Clone 2.1; [13],0.252
same,A450,Clone 2.1; [14],0.240
same,A450,Clone 2.1; [15],0.234
same,A450,Clone 2.1; [16],0.236
same,Calculated percentage cross-reactivity,Clone 2.1; [17],76.1%
same,Calculated percentage cross-reactivity,Clone 2.1; based upon specificity to LSD,100.0%
same,A450,Clone 20.2; [5],0.833
same,A450,Clone 20.2; [6],0.658
same,A450,Clone 20.2; [7],0.587
same,A450,Clone 20.2; [8],0.328
same,A450,Clone 20.2; [9],0.284
same,A450,Clone 20.2; [10],0.204
same,A450,Clone 20.2; [11],0.160
same,A450,Clone 20.2; [12],0.126
same,A450,Clone 20.2; [13],0.126
same,A450,Clone 20.2; [14],0.124
same,A450,Clone 20.2; [15],0.188
same,A450,Clone 20.2; [16],0.122
same,Calculated percentage cross-reactivity,Clone 20.2; [17],84.4%
same,Calculated percentage cross-reactivity,Clone 20.2; based upon specificity to LSD,100.0%
same,parent drug excreted in human urine,[4]; human urine,about 1%
"CCN(CC)C(=O)[C@@H]1C=C2c3cccc4[nH]cc(c34)C[C@H]2NC1 [nor-LSD, N-desmethyl-LSD]",A450,Clone 1.1; [5],4.019
same,A450,Clone 1.1; [6],4.074
same,A450,Clone 1.1; [7],4.100
same,A450,Clone 1.1; [8],3.884
same,A450,Clone 1.1; [9],4.035
same,A450,Clone 1.1; [10],3.805
same,A450,Clone 1.1; [11],3.740
same,A450,Clone 1.1; [12],3.735
same,A450,Clone 1.1; [13],3.601
same,A450,Clone 1.1; [14],3.512
same,A450,Clone 1.1; [15],3.340
same,A450,Clone 1.1; [16],2.968
same,Calculated percentage cross-reactivity,Clone 1.1; [17],1.9%
same,Calculated percentage cross-reactivity,Clone 1.1; based upon specificity to LSD,2.6%
same,A450,Clone 2.1; [5],0.900
same,A450,Clone 2.1; [6],0.859
same,A450,Clone 2.1; [7],0.842
same,A450,Clone 2.1; [8],0.792
same,A450,Clone 2.1; [9],0.786
same,A450,Clone 2.1; [10],0.696
same,A450,Clone 2.1; [11],0.648
same,A450,Clone 2.1; [12],0.504
same,A450,Clone 2.1; [13],0.444
same,A450,Clone 2.1; [14],0.384
same,A450,Clone 2.1; [15],0.318
same,A450,Clone 2.1; [16],0.276
same,Calculated percentage cross-reactivity,Clone 2.1; [17],1.8%
same,Calculated percentage cross-reactivity,Clone 2.1; based upon specificity to LSD,2.3%
same,A450,Clone 20.2; [5],0.908
same,A450,Clone 20.2; [6],0.866
same,A450,Clone 20.2; [7],0.853
same,A450,Clone 20.2; [8],0.799
same,A450,Clone 20.2; [9],0.722
same,A450,Clone 20.2; [10],0.656
same,A450,Clone 20.2; [11],0.584
same,A450,Clone 20.2; [12],0.464
same,A450,Clone 20.2; [13],0.416
same,A450,Clone 20.2; [14],0.292
same,A450,Clone 20.2; [15],0.228
same,A450,Clone 20.2; [16],0.288
same,Calculated percentage cross-reactivity,Clone 20.2; [17],4.6%
same,Calculated percentage cross-reactivity,Clone 20.2; based upon specificity to LSD,5.5%
